US12529022B2, “Human organ-on-chip models for predictive screening” (The Trustees of Columbia University in the City of New York, priority 2018, dated 2026)

Key:
[1] = tested on: ES model; assay: Immunohistochemical Ki67 staining and TUNEL assay of the ES model; format: cell-based, human; conditions: ES model after linsitinib treatment
Source text: To assess apoptosis, paraffin embedded tissue sections were first deparaffinized with CitriSolv, rehydrated with graded series of ethanol washes, and then stained with a Click-iT® TUNEL Alexa Fluor® imaging assay (Thermo Fisher Scientific).

[2] = tested on: non-metastatic (RD-ES cell line derived) Ewing sarcoma OOC; assay: Non-metastatic Ewing sarcoma OOC, luciferase luminescence (cancer cell number and viability); format: cell-based, human; conditions: 12 μM
Description: Drug treatment experiments recapitulating the patient treatment regimens and the patient plasma concentration of 12 μM of linsitinib were then carried out on the nonmetastatic and metastatic TE-ES and OS models. FIGS. 42 and 43 are graphs illustrating non-metastatic (RD-ES cell line derived, FIG. 42) and metastatic (SK-N-MC cell line derived, FIG. 43) Ewing sarcoma OOCs were exposed to linsitinib (12 μM) according to the drug treatment regimen. Luminescence as a function of cancer cell number and viability was measured (mean±s.e.m., n=6 for day 3, and n=3 for day 7 and 21, biologically independent per group). Significance was determined by unpaired two-tailed Student's t test of treatment group at specific day with respective control; *P<0.05; **P<0.01; ***P<0.001. Tissue engineered bone tumor models: Using an established protocol, expanded MSCs were seeded into the bone matrix scaffolds (4 mm×4 mm×1 mm) at a concentration of 10^6 cells per scaffold, using 40 μL of medium. The cells were allowed to attach for 2 hours, and then supplemented with additional mesenchymal stem cell medium overnight. The following day, osteogenic differentiation of the seeded cells was initiated by addition of low glucose DMEM supplemented with 1 μM dexamethasone (Sigma-Aldrich), 10 mM β-glycerophosphate (SigmaAldrich), and 50 μM L-ascorbic acid-2-phosphate (Sigma Aldrich). Each scaffold was incubated in 4 mL of osteogenic media, with media changes three times a week, for 3 weeks, allowing for the MSCs to differentiate into functional, maturing osteoblasts. Two weeks following the initiation of osteogenic differentiation, aggregates of tumor cells were prepared as described previously. Briefly, 0.3×10^6 cells were used to form ES aggregates and 0.5×10^6 cells were used to form OS aggregates. After 1 week of culture, the primary bone tumor aggregates were infused into the differentiated osteoblastseeded bone scaffolds (3 aggregates per scaffold, placed apart of each other). Tumor models were established for each of the two ES cell types (non-metastatic RD-ES, metastatic SK-NMC) and three OS cell types (non-metastatic U2-OS and Saos2, metastatic KHOS/NP). TE-RD-ES were cultured in the RPMI medium, TE-U-2 OS in DMEM, TE-Saos2 in McCoy's 5A, and TESK-N-MC and TE-KHOS/NP both in EMEM. Scaffolds without aggregates were used as healthy bone controls for each tumor model (termed TE-bone) and were cultured in the respective cancer cell line medium. […] Cell viability: Cancer cell viability was measured for GFP-Luciferase labelled cancer cells using ONE-Glo luciferase substrate that was prepared according to manufacturer's protocol (Promega). […] Cardiac cell viability was assessed through the Pierce LDH Cytotoxicity Assay Kit (Thermo Fisher Scientific). […]

[3] = tested on: metastatic (SK-N-MC cell line derived) Ewing sarcoma OOC; assay: Metastatic Ewing sarcoma OOC, luciferase luminescence (cancer cell number and viability); format: cell-based, human; conditions: 12 μM
Description: Drug treatment experiments recapitulating the patient treatment regimens and the patient plasma concentration of 12 μM of linsitinib were then carried out on the nonmetastatic and metastatic TE-ES and OS models. FIGS. 42 and 43 are graphs illustrating non-metastatic (RD-ES cell line derived, FIG. 42) and metastatic (SK-N-MC cell line derived, FIG. 43) Ewing sarcoma OOCs were exposed to linsitinib (12 μM) according to the drug treatment regimen. Luminescence as a function of cancer cell number and viability was measured (mean±s.e.m., n=6 for day 3, and n=3 for day 7 and 21, biologically independent per group). Significance was determined by unpaired two-tailed Student's t test of treatment group at specific day with respective control; *P<0.05; **P<0.01; ***P<0.001. Tissue engineered bone tumor models: Using an established protocol, expanded MSCs were seeded into the bone matrix scaffolds (4 mm×4 mm×1 mm) at a concentration of 10^6 cells per scaffold, using 40 μL of medium. The cells were allowed to attach for 2 hours, and then supplemented with additional mesenchymal stem cell medium overnight. The following day, osteogenic differentiation of the seeded cells was initiated by addition of low glucose DMEM supplemented with 1 μM dexamethasone (Sigma-Aldrich), 10 mM β-glycerophosphate (SigmaAldrich), and 50 μM L-ascorbic acid-2-phosphate (Sigma Aldrich). Each scaffold was incubated in 4 mL of osteogenic media, with media changes three times a week, for 3 weeks, allowing for the MSCs to differentiate into functional, maturing osteoblasts. Two weeks following the initiation of osteogenic differentiation, aggregates of tumor cells were prepared as described previously. Briefly, 0.3×10^6 cells were used to form ES aggregates and 0.5×10^6 cells were used to form OS aggregates. After 1 week of culture, the primary bone tumor aggregates were infused into the differentiated osteoblastseeded bone scaffolds (3 aggregates per scaffold, placed apart of each other). Tumor models were established for each of the two ES cell types (non-metastatic RD-ES, metastatic SK-NMC) and three OS cell types (non-metastatic U2-OS and Saos2, metastatic KHOS/NP). TE-RD-ES were cultured in the RPMI medium, TE-U-2 OS in DMEM, TE-Saos2 in McCoy's 5A, and TESK-N-MC and TE-KHOS/NP both in EMEM. Scaffolds without aggregates were used as healthy bone controls for each tumor model (termed TE-bone) and were cultured in the respective cancer cell line medium. All culture media were supplemented with 10% FBS and 1% penicillin/streptomycin. […] Tissues were randomly assigned to experimental groups. Medium was changed every day. Cardiac tissues were exposed to linsitinib for 3 days. The bone tumor models were exposed to a physiological treatment regimen consisted of cycles that involved 3 consecutive days of treatment followed by 4 days without drug, unless otherwise stated. Cell viability: Cancer cell viability was measured for GFP-Luciferase labelled cancer cells using ONE-Glo luciferase substrate that was prepared according to manufacturer's protocol (Promega). Samples were collected following 3, 7, and 21-day cycles of Linsitinib treatment. Cardiac cell viability was assessed through the Pierce LDH Cytotoxicity Assay Kit (Thermo Fisher Scientific). Samples were collected at 0 h, 1 h and 72 h.

[4] = tested on: human cardiac OOC; assay: Cardiac OOC extracellular LDH cytotoxicity assay; format: cell-based; conditions: after linsitinib exposure
Description: Tissues were randomly assigned to experimental groups. Medium was changed every day. Cardiac tissues were exposed to linsitinib for 3 days.
Cell viability: Cancer cell viability was measured for GFP-Luciferase labelled cancer cells using ONE-Glo luciferase substrate that was prepared according to manufacturer's protocol (Promega). Samples were collected following 3, 7, and 21-day cycles of Linsitinib treatment. Cardiac cell viability was assessed through the Pierce LDH Cytotoxicity Assay Kit (Thermo Fisher Scientific). Samples were collected at 0 h, 1 h and 72 h.

## C[C@]1(O)C[C@@H](c2nc(-c3ccc4ccc(-c5ccccc5)nc4c3)c3c(N)nccn32)C1 [linsitinib, Linsitinib (OSI-906)]
[1]
  apoptosis by TUNEL assay: increases in apoptosis
  proliferation via Ki67-staining: reduced proliferation
[2]; 21-day treatment cycle
  course of treated cancer cell population: stopped expanding after the treatment
[2]; day 3
  luminescence (cancer cell number and viability) vs control: significant drug response
[2]; day 7
  luminescence (cancer cell number and viability) vs control: significant responses
[2]; day 21
  luminescence (cancer cell number and viability) vs control: significant responses
[3]; 21-day treatment cycle
  course of treated cancer cell population: continued to expand throughout the 21-day treatment cycle
[3]; after 3 days
  drug efficacy after day 3: decrease in drug efficacy
[3]; day 3
  luminescence (cancer cell number and viability) vs control: significant drug response
[3]; day 7
  luminescence (cancer cell number and viability) vs control: significant responses
[3]; day 21
  luminescence (cancer cell number and viability) vs control: significant responses
[4]
  extracellular lactate dehydrogenase (LDH): increased levels
